Each structure is given as a SMILES string.

In the experiment the test system is S. cerevisiae JAY 270. Briefly: Continuous two-column immobilized cell bioreactor in YPD medium. It counts as cell-based, Saccharomyces cerevisiae. The note with it: Phase 2, 0.2% PheOH in feed. The text has this:
The immobilized cell reactor system consisted of two glass cylindrical columns, a vessel with agitation containing fermentation medium (controlled temperature, pH, and dissolved oxygen), and a pump for delivery of the feed to the column. The glass column had dimensions of OD=32, ID=29, and L=160 mm; screens were placed above and below the alginate bead layer to retain the cells in the column. YPD medium with 0.6 g/L CaCl2·2H2O was used in the continuous fermentation. Two columns (a well-mixed reactor column and a packed-bed column) were used in this test (FIG. 5). The total volume of immobilized cells used to fill the column was […] and the medium volume was 20 mL in each column. The total medium volume in the system was 60 mL, including the medium in both columns and in the vessel. The flow rate of fresh medium was 2.3 mL/min.
The system was first fed with YPD medium for 20 hours to activate the immobilized cells. After 20 hours, samples were collected at different times points over 24 hours from both Column 1 (well-mixed reactor) and the entire system. Then YPD medium containing 0.2% PheOH was used to replace the YPD medium for another 26 hours. After that, the medium was changed back to YPD medium for 6 hours. The content of glucose and ethanol in samples was analyzed using HPLC.
Owing to the limited supply of algal hydrolysate, the test was conducted using YPD medium. The test was conducted with 0.2% PheOH as the growth inhibitor. For 20 hours prior to the start of the experiment, the system was fed YPD medium without PheOH to ensure that the cells were fully active following their immobilization. The experiment was then conducted with three phases: • (1) 24 hours, during which the feed was YPD medium without PheOH. The start of this phase represented time zero of the experiment. • (2) 26 hours, during which the feed was YPD medium with 0.2% PheOH. • (3) 6 hours, during which the feed was YPD medium without PheOH.

As for `OCCc1ccccc1` [PheOH, 2-phenylethanol], the Ethanol productivity by setting is: (C1) 21 g/L·h; (whole system) 21 g/L·h. Moreover, the Ethanol yield entry (C1) is “about 0.45” and the Ethanol yield (C1+C2) is about 0.43. The compound also came in with a Glucose conversion (C1+C2) of 91% and a Glucose conversion (after C1) of 60%.

The record behind these values is patent US11827917B1, “Methods for the conversion of fermentable sugars to ethanol” (Colorado State University Research Foundation, priority 2020, dated 2023).
